Data as given in publication PMC10343660, “Mechanochemical Studies on Coupling of Hydrazines and Hydrazine Amides with Phenolic and Furanyl Aldehydes—Hydrazones with Antileishmanial and Antibacterial Activities” (Molecules, 2023).
Values after ≈ are worked out from the molar mass of the structure shown. Where two headings read alike, the source gives them in different places. Marks after values point to notes of the source that are not given here.

Experiments:
S. aureus ATCC29213 = assay: MIC determination on S. aureus ATCC29213; format: cell-based, Staphylococcus aureus; conditions: value in parentheses
S. aureus ATCC25923 = assay: MIC determination on S. aureus ATCC25923 (microdilution, resazurin); format: cell-based, Staphylococcus aureus
E. coli ATCC25922 = assay: MIC determination on E. coli ATCC25922 (microdilution, resazurin); format: cell-based, Escherichia coli
[1] = test system: Mycobacterium tuberculosis H37Rv; assay: MIC determination for Mycobacterium tuberculosis H37Rv (REMA); format: cell-based; conditions: for MIC: read-out: M. tuberculosis H37Rv MIC; for MIC90: read-out: minimum inhibitory concentration (MIC90) on M. tuberculosis H37Rv
[2] = test system: L. donovani axenic amastigotes (LV9); assay: In vitro antileishmanial evaluation on L. donovani axenic amastigotes (SYBR Green); format: cell-based, Leishmania donovani; conditions: read-out: L. donovani Axenic Amastigote IC50 ± SD
Protocol: L. donovani (MHOM/ET/67/HU3, also called LV9) promastigotes and axenic amastigotes were maintained according to the protocols previously described.
In vitro antileishmanial evaluation on L. donovani axenic amastigotes. This evaluation was performed using the SYBR Green method as previously described. IC50 values were calculated using the ICEstimator version 1.2 software (http://www.antimalarial-icestimator.net/runregression1.2.htm, accessed on 5 April 2023). Miltefosine was used as the reference drug.

[3] = test system: L. donovani intramacrophage amastigotes; assay: In vitro antileishmanial evaluation on intramacrophage amastigotes (RAW 264.7 infected, SYBR Green); format: cell-based, Leishmania donovani; conditions: for SI (Selectivity Index): CC50 (macrophage RAW 264.7)/IC50 (intramacrophage form of L. donovani); for IC50: read-out: L. donovani Intramacrophage Amastigote IC50 ± SD
Protocol: In vitro antileishmanial evaluation on intramacrophage amastigotes. RAW 264.7 macrophages were infected with L. donovani axenic amastigotes according to a ratio of 10 parasites per macrophage. […] The in vitro treatment was applied 24 h post-infection, and the treatment duration was 48 h. […] The activity of the compounds is expressed as IC50, calculated using the ICEstimator version 1.2 software. Miltefosine was used as the reference drug.

[4] = Staphylococcus aureus, ATCC29213
[5] = Staphylococcus aureus, ATCC25923, value outside parentheses, read-out: S. aureus ATCC25923 MIC
[6] = Escherichia coli, ATCC25922, value outside parentheses, read-out: E. coli ATCC25922 MIC
[7] = Mycobacterium tuberculosis, H37RV, 168 h, REMA, 7 days
[8] = Mycobacterium tuberculosis, H37RV, range for the active compounds
[9] = Leishmania donovani, LV9 axenic amastigote forms
[10] = Leishmania donovani, RAW264.7, RAW 264.7 macrophages infected, treatment 48 h
[11] = value outside parentheses, read-out: S. aureus ATCC25923 MIC
[12] = value outside parentheses, read-out: E. coli ATCC25922 MIC
[13] = Staphylococcus aureus, ATCC25923, 24 h, value outside parentheses, read-out: S. aureus ATCC25923 MIC
[14] = Escherichia coli, ATCC25922, 24 h, value outside parentheses, read-out: E. coli ATCC25922 MIC

| Structure (SMILES) | MIC (S. aureus ATCC25923; [5]) | MIC (E. coli ATCC25922; [6]) | MIC [1, 7] | IC50 [2, 9] | SI (Selectivity Index) [3] | IC50 [3, 10] | melting point | also measured |
| --- | --- | --- | --- | --- | --- | --- | --- | --- |
| O=C(O)c1cn(C2CC2)c2cc(N3CCNCC3)c(F)cc2c1=O [Ciprofloxacin, reference compound] | 3 µM (≈ 0.994 µg/mL) | 0.75 µM (≈ 0.249 µg/mL) |  |  |  |  |  | MIC (S. aureus ATCC29213; [4]): 5 µM (≈ 1.66 µg/mL) |
| COc1cc(/C=N/NC(=O)c2ccncc2)ccc1O [Compound 1, N′-[(E)-(4-Hydroxy-3-methoxyphenyl)methylene]isonicotinohydrazide] | > 944 µM | > 944 µM | 0.6 µM (≈ 0.163 µg/mL) | 24.9 ± 2.9 µM | >2.5 | 40.2 ± 3.1 µM |  | MIC90 [1, 8]: 0.6 to 7.4 µM (≈ 0.163 to 2.01 µg/mL) |
| COc1cc(/C=N/NC(=O)c2ccc(O)cc2)ccc1O [Compound 2, 4-hydroxy-N′-[(E)-(4-hydroxy-3-methoxyphenyl)methylidene]benzohydrazide] | > 894 µM | > 894 µM | > 100 µM | 2.1 ± 0.1 µM | >17 | 5.9 ± 0.9 µM |  |  |
| O=C(N/N=C/C=C/c1ccc([N+](=O)[O-])o1)c1ccncc1 [Compound 3, N′-[(1E,2E)-3-(5-Nitro-2-furyl)-2-propen-1-ylidene]isonicotinohydrazide] | 1.75 µM (≈ 0.501 µg/mL) | 28 µM (≈ 8.01 µg/mL) | 1 µM (≈ 0.286 µg/mL) | 0.6 ± 0.1 µM | >200 | 0.5 ± 0.1 µM | 252.1 to 254 °C | MIC90 [1, 8]: 0.6 to 7.4 µM (≈ 0.172 to 2.12 µg/mL); MIC (S. aureus ATCC29213; [4]): 7 µM (≈ 2 µg/mL); MIC (S. aureus ATCC29213): 7 µM (≈ 2 µg/mL); MIC (S. aureus ATCC25923; [11]): 1.75 µM (≈ 0.501 µg/mL); MIC (E. coli ATCC25922; [12]): 28 µM (≈ 8.01 µg/mL) |
| O=[N+]([O-])c1ccc(/C=C/C=N/NN2Cc3ccccc3C=N2)o1 [Compound 4, 2-{(2E)-2-[(2E)-3-(5-Nitro-2-furyl)-2-propen-1-ylidene]hydrazino}phthalazine] | > 828 µM | > 828 µM | 129 µM (≈ 40.2 µg/mL) | 1.9 ± 0.3 µM | >166 | 0.6 ± 0.1 µM |  |  |
| O=[N+]([O-])c1ccc(/C=C/C=N/Nc2nc3ccccc3s2)o1 [Compound 5, 2-{(2E)-2-[(2E)-3-(5-Nitro-2-furyl)-2-propen-1-ylidene]hydrazino}-1,3-benzothiazole] | > 814 µM | > 814 µM | 1 µM (≈ 0.314 µg/mL) | 2.3 ± 0.3 µM | >8 | 12.4 ± 1.2 µM | 243.1 °C | MIC90 [1, 8]: 0.6 to 7.4 µM (≈ 0.189 to 2.33 µg/mL) |
| O=C1CSC(=S)N1/N=C/C=C/c1ccc([N+](=O)[O-])o1 [Compound 6, 3-{(E)-[(2E)-3-(5-Nitro-2-furyl)-2-propen-1-ylidene]amino}-2-thioxo-1,3-thiazolidin-4-one] | 13 µM (≈ 3.87 µg/mL) | > 861 µM | 4.2 µM (≈ 1.25 µg/mL) | 0.7 ± 0.1 µM | >125 | 0.8 ± 0.1 µM |  | MIC90 [1, 8]: 0.6 to 7.4 µM (≈ 0.178 to 2.2 µg/mL); MIC (S. aureus ATCC29213; [4]): 7 µM (≈ 2.08 µg/mL); MIC (S. aureus ATCC29213): 7 µM (≈ 2.08 µg/mL); MIC (S. aureus ATCC25923; [11]): 13 µM (≈ 3.87 µg/mL) |
| O=C(N/N=C/c1ccc(-c2ccc([N+](=O)[O-])cc2)o1)c1ccncc1 [Compound 8, N′-{(E)-[5-(4-Nitrophenyl)-2-furyl]methylene}isonicotinohydrazide] |  |  |  |  | >2 |  |  | MIC ([1]; Mycobacterium tuberculosis, H37RV, 168 h): 0.9 µM (≈ 0.303 µg/mL); MIC90 ([1]; Mycobacterium tuberculosis, H37RV): 0.6 to 7.4 µM (≈ 0.202 to 2.49 µg/mL); IC50 ([2]; Leishmania donovani): 16.2 ± 1.2 µM; IC50 ([3]; Leishmania donovani, RAW264.7, 48 h): 36.2 ± 1.4 µM; MIC (S. aureus ATCC25923; Staphylococcus aureus, ATCC25923, read-out: S. aureus ATCC25923 MIC): > 761 µM; MIC (E. coli ATCC25922; Escherichia coli, ATCC25922, read-out: E. coli ATCC25922 MIC): > 761 µM |
| O=[N+]([O-])c1ccc(-c2ccc(/C=N/Nc3nncc4ccccc34)o2)cc1 [Compound 9, 1-[(2E)-2-{[5-(4-Nitrophenyl)-2-furyl]methylene}hydrazino]phthalazine] | > 711 µM | > 711 µM | > 100 µM | 0.2 ± 0.1 µM | >333 | 0.3 ± 0.1 µM | 239.5 to 241.5 °C |  |
| O=[N+]([O-])c1ccc(-c2ccc(/C=N/Nc3nc4ccccc4s3)o2)cc1 [Compound 10, 2-[(2E)-2-{[5-(4-Nitrophenyl)-2-furyl]methylene}hydrazino]-1,3-benzothiazole] | > 703 µM | > 703 µM | > 100 µM | 0.7 ± 0.1 µM |  | 5.8 ± 1 µM | 271.9 °C |  |
| O=C1CSC(=S)N1/N=C/c1ccc(-c2ccc([N+](=O)[O-])cc2)o1 [Compound 11, 3-[(E)-{[5-(4-Nitrophenyl)-2-furyl]methylene}amino]-2-thioxo-1,3-thiazolidin-4-one] | > 737 µM | > 737 µM | > 100 µM | 5.2 ± 0.3 µM |  | > 100 µM | 175 °C |  |
| O=[N+]([O-])c1ccc(-c2ccc(/C=N/Nc3ccc(Br)cn3)o2)cc1 [Compound 13, 5-Bromo-2-[(2E)-2-{[5-(4-nitrophenyl)furan-2-yl]methylidene}hydrazin-1-yl]pyridine] | > 661 µM | > 661 µM | > 100 µM | 54.3 ± 4.5 µM |  | > 100 µM |  |  |
| O=[N+]([O-])c1ccc(-c2ccc(/C=N/Nc3nccc(C(F)(F)F)n3)o2)cc1 [Compound 14, 2-[(2E)-2-{[5-(4-Nitrophenyl)furan-2-yl]methylidene}hydrazin-1-yl]-4-(trifluoromethyl) pyrimidine] |  |  | > 100 µM | 2.9 ± 0.2 µM | >8 | 11.9 ± 1.1 µM | 212.4 to 214.2 °C | MIC (S. aureus ATCC25923; [13]): > 669 µM; MIC (E. coli ATCC25922; [14]): > 669 µM |
| O=[N+]([O-])c1ccc(-c2ccc(/C=N/Nc3cnccn3)o2)cc1 [Compound 15, 2-[(2E)-2-{[5-(4-nitrophenyl)furan-2-yl]methylidene}hydrazin-1-yl]pyrazine] |  |  | > 100 µM | 9.9 ± 0.8 µM | >4 | 23.3 ± 3.1 µM | 272.2 to 274 °C | MIC (S. aureus ATCC25923; [13]): > 678 µM; MIC (E. coli ATCC25922; [14]): > 678 µM |
| O=[N+]([O-])c1ccc(-c2ccc(/C=N/Nc3nc4ccc(Cl)cc4o3)o2)cc1 [Compound 16, 6-chloro-2-[(2E)-2-{[5-(4-nitrophenyl)furan-2-yl]methylidene}hydrazin-1-yl]-1,3-benzoxazole] |  |  | > 100 µM | > 100 µM |  | > 100 µM | 190.9 °C | MIC (S. aureus ATCC25923; [13]): > 828 µM; MIC (E. coli ATCC25922; [14]): > 828 µM |
| O=C(N/N=C/c1ccc(-c2ccc([N+](=O)[O-])cc2)o1)OCc1ccccc1 [Compound 17, N′-[(E)-[5-(4-nitrophenyl)furan-2-yl]methylidene](benzyloxy)carbohydrazide] |  |  |  |  |  |  |  | MIC ([1]; REMA, 7 days): >100 µM; IC50 ([2]; LV9 axenic amastigote forms): 12.2 ± 1.6 µM; IC50 ([3]; RAW 264.7 macrophages infected, treatment 48 h): 32.4 ± 2.8 µM; MIC (S. aureus ATCC25923; [11]): >701 µM; MIC (E. coli ATCC25922; [12]): >701 µM |
| NNC(=O)c1ccncc1 [Isoniazid, reference compound] |  |  | 0.4 µM (≈ 0.0549 µg/mL) |  |  |  |  |  |
| CCCCCCCCCCCCCCCCOP(=O)([O-])OCC[N+](C)(C)C [Miltefosine, reference compound] |  |  |  | 1.5 ± 0.3 µM | 9 ^a | 2.2 ± 0.3 µM |  |  |
| [H]/N=C(/N)N[C@H]1[C@H](O)[C@@H](O)[C@H](O[C@@H]2O[C@@H](C)[C@](O)(C=O)[C@H]2O[C@@H]2O[C@@H](CO)[C@H](O)[C@@H](O)[C@@H]2NC)[C@@H](N/C(N)=N\[H])[C@@H]1O [Streptomycin, reference compound] |  |  | 0.4 µM (≈ 0.233 µg/mL) |  |  |  |  |  |
